The target of this assay is T1, hDGAT1 (Homo sapiens, UniProt O75907).
T1 construct: host or cells: Sf9 insect cells (baculovirus); microsomal preparation
T1 sequence (O75907 1-488): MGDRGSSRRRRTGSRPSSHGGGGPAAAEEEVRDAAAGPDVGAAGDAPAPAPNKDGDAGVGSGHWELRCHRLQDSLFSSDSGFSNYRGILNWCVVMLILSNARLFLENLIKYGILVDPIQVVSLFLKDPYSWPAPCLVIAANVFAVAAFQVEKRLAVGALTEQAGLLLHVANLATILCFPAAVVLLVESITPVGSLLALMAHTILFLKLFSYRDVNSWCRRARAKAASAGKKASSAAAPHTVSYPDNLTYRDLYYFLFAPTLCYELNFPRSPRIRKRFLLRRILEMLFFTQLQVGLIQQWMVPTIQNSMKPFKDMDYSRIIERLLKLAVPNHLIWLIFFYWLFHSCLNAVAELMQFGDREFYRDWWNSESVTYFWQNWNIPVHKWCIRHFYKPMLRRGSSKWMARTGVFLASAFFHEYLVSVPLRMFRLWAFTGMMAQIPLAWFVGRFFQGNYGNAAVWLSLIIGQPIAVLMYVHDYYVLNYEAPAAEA
As to the kind of experiment: In-vitro DGAT1 assay (hDGAT1 microsomes from Sf9 cells, 14C oleoyl CoA, triglyceride formation). It counts as biochemical. Summed up: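 Human DGAT1 in baculovirus-infected Sf9 microsomes (2.5–10 μg), [14C]oleoyl-CoA with 409.5, 1228.5 or 1638 μM 1,2-dioleoyl-sn-glycerol, Tris-HCl pH 7.4 buffer with BSA. Compounds screened at 10, 5 and 1 μM in duplicate. Reaction 10 min at 37 °C; heptane-extracted [14C]triglyceride counted by scintillation.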

Where the note is “At 1 μM”, `CC(C)[C@@H](NC(=O)c1cc(-c2ccc(NC(=O)Nc3ccccc3F)cc2)no1)C(=O)O` [Example 258, (R)-2-(3-(4-(3-(2-Fluorophenyl)ureido)phenyl)isoxazole-5-carboxamido)-3-methylbutanoic acid] came in with an inhibition at 1 µM of 50 to 75%. The same measure, in the same setting: in the case of `Cc1ccc(NC(=O)Nc2ccc(-c3cc(C(=O)N[C@H](C(=O)O)C(C)C)on3)cc2)c(C)c1` [Example 171, (S)-2-(3-(4-(3-(2,4-dimethylphenyl)ureido)phenyl)isoxazole-5-carboxamido)-3-methylbutanoic acid] it was 75 to 100%. `COC(=O)[C@H](CO)NC(=O)c1cc(-c2ccc(NC(=O)Nc3ccccc3F)cc2)no1` [Example 298, (S)-Methyl 2-(3-(4-(3-(2-fluorophenyl)ureido)phenyl)isoxazole-5-carboxamido)-3-hydroxypropanoate] had an inhibition at 5 µM of 50 to 75%. `O=C(O)[C@@H]1CCCN1C(=O)c1cc(-c2cccc(Nc3nc4ccc(F)cc4s3)c2)no1` [Example 35, (S)-1-{3-[3-(6-Fluoro-benzothiazol-2-ylamino)-phenyl]-isoxazole-5-carbonyl}-pyrrolidine-2-carboxylic acid] yielded an inhibition at 10 µM of 0 to 50%. On to `COC(=O)[C@@H](NC(=O)c1cc(-c2ccc(NC(=O)Nc3ccc(F)cc3F)cc2F)no1)C(C)C` [Example 141, (S)-Methyl 2-(3-(4-(3-(2,4-difluorophenyl)ureido)-2-fluorophenyl)isoxazole-5-carboxamido)-3-methylbutanoate], for which the inhibition at 5 µM fell in the range of 0 to 50%. In the case of `CC(C)C(NC(=O)c1cc(-c2ccc(OCc3ccc(F)cc3F)cc2)no1)C(=O)O` (centres unmarked) [Example 332], under “At 1 μM”, the “% inhibition of hDGAT1” value is on record as “+ (>0% Inhibition ≦50)”. Under “At 1 μM”, `CC(C)[C@@H](NC(=O)c1cc(-c2ccc(NS(=O)(=O)c3c(F)cccc3F)cc2)no1)C(=O)O` [Example 317, (R)-2-(3-(4-(2,6-Difluorophenylsulfonamido)phenyl)isoxazole-5-carboxamido)-3-methylbutanoic acid] displayed an inhibition at 1 µM of 0 to 50%.

`O=C(O)c1cc(-c2ccc(Nc3nc4ccc(F)cc4s3)cc2)no1` [Example 2, 3-[4-(6-Fluoro-benzothiazol-2-ylamino)-phenyl]-isoxazole-5-carboxylic acid] showed an inhibition at 10 µM of 0 to 50%. The same measure, in the same setting: in the case of `Cc1ccc(NC(=O)Nc2ccc(-c3cc(C(=O)NC(C(=O)O)C(C)C)on3)cc2)cc1` (centres unmarked) [Example 126, 3-Methyl-2-(3-(4-(3-p-tolylureido)phenyl)isoxazole-5-carboxamido) butanoic acid] it was 75 to 100%. For the compound `COC(=O)[C@H](C(C)C)N(C)C(=O)c1cc(-c2ccc(NC(=O)NC3CCCCC3)cc2)no1` [Example 311, (S)-methyl 2-(3-(4-(3-cyclohexylureido)phenyl)-N-methylisoxazole-5-carboxamido)-3-methylbutanoate], where the note is “At 1 μM”, the inhibition at 1 µM fell in the range of 50 to 75%. For the compound `CC(NC(=O)c1cc(-c2ccc(NC(=O)Nc3ccc(F)cc3)cc2)no1)C(=O)O` (centres unmarked) [Example 116, 2-(3-(4-(3-(4-fluorophenyl)ureido)phenyl)isoxazole-5-carboxamido) propanoic acid], the inhibition at 10 µM is 75 to 100%. Same read-out and setting: in the case of `CC(C)C(NC(=O)c1cc(-c2ccc(NC(=O)NCc3ccccc3)cc2)no1)C(=O)O` (centres unmarked) [Example 108, 2-(3-(4-(3-Benzylureido)phenyl)isoxazole-5-carboxamido)-3-methylbutanoic acid] it was 50 to 75%; in that of `COC(=O)C(NC(=O)c1cc(-c2ccc(NC(=O)Nc3ccccc3F)cc2)no1)C(C)C` (centres unmarked) [Example 105, 2-[(3-{4-[3-(2-Fluoro-phenyl)ureido]-phenyl}-isoxazole-5-carbonyl)-amino]-3-methyl-butyric acid methyl ester], 50 to 75%. For the compound `COC(=O)[C@H](NC(=S)c1cc(-c2ccc(NC(=O)Nc3ccc(C)cc3)cc2)no1)C(C)C` [Example 223, (R)-Methyl 3-methyl-2-(3-(4-(3-p-tolylureido)phenyl)isoxazole-5-carbothioamido)butanoate], under “At 1 μM”, the inhibition at 1 µM lay in the range of 0 to 50%. Turning to `C=C(NC(=O)c1cc(-c2ccc(NC(=O)Nc3ccccc3F)cc2)no1)C(=O)O` [Example 302, 2-(3-(4-(3-(2-Fluorophenyl)ureido)phenyl)isoxazole-5-carboxamido) acrylic acid], the inhibition at 1 µM (At 1 μM) was 50 to 75%. Same read-out and setting: next, `CC(C)[C@H](NC(=O)c1cc(-c2ccc(NC(=O)Nc3ccc4c(c3)OCO4)cc2)no1)C(=O)O` [Example 177, (S)-2-(3-(4-(3-benzo[d][1,3]dioxol-5-ylureido)phenyl)isoxazole-5-carboxamido)-3-methylbutanoic acid]: 75 to 100%. In the case of `COC(=O)[C@@H](NC(=S)c1cc(-c2ccc(Nc3nc4ccc(F)cc4s3)cc2)no1)C(C)C` [Example 6, (S)-2-({3-[4-(6-Fluoro-benzothiazol-2-ylamino)-phenyl]-isoxazole-5-carbothioyl}-amino)-3-methyl-butyric acid methyl ester], the inhibition at 10 µM was 0 to 50%.

As for `O=C(O)CNC(=S)c1cc(-c2ccc(Nc3nc4ccc(F)cc4s3)cc2)no1` [Example 61, ({3-[4-(6-fluoro-benzothiazol-2-ylamino)-phenyl]-isoxazole-5-carbothioyl}-amino)-acetic acid], the inhibition at 10 µM lay within 0 to 50%.

Regarding `COC[C@H](NC(=O)c1cc(-c2ccc(Nc3nc4ccc(F)cc4s3)cc2)no1)C(=O)O` [Example 13, (S)-2-({3-[4-(6-Fluoro-benzothiazol-2-ylamino)-phenyl]-isoxazole-5-carbonyl}-amino)-3-methoxy-propionic acid], the inhibition at 10 µM is 75 to 100%. For the compound `CC(C)[C@H](NC(=O)c1cc(-c2ccc(NC(=O)Nc3cc(Cl)ccc3Oc3ccccc3)cc2)no1)C(=O)O` [Example 236, (S)-2-(3-(4-(3-(5-Chloro-2-phenoxyphenyl)ureido)phenyl)isoxazole-5-carboxamido)-3-methylbutanoic acid], where the note is “At 1 μM”, the inhibition at 1 µM was in the range of 75 to 100%.

The record behind these values is patent US8835428B2, “Diacylglycerol acyltransferase inhibitors” (Piramal Enterprises Limited, priority 2008, dated 2014).
